Values after ≈ are worked out from the molar mass of the structure shown. Like-named read-outs stand apart in the source and are kept apart here. One block for each compound: values may come before it.
What was measured:
[1] = test system: S. neurona merozoites; test: S. neurona growth assay (yellow fluorescent protein-expressing clone); conditions: Sarcocystis neurona, read-out: S. neurona EC50
[2] = target: BbCDPK1 (Besnoitia besnoiti, UniProt A0A290U7L2); test: BbCDPK1 inhibition; format: biochemical
[3] = test system: SnCDPK1; test: Recombinant SnCDPK1 inhibition; format: biochemical, Sarcocystis neurona
[4] = test system: Besnoitia besnoiti; test: Besnoitia besnoiti in vitro activity; format: cell-based
[5] = test system: N. caninum; test: N. caninum in vitro cultures; format: cell-based, Neospora caninum
[6] = test system: N. caninum; test: Treatment of non-pregnant and pregnant Balb/c mice infected with N. caninum; format: in vivo, Neospora caninum
[7] = in vivo; conditions: BALB/c, mouse, po, 10 mg/kg
[8] = pH 6.5
[9] = Rat PK following IV and PO dosing; conditions: rats, PO vs IV
[10] = target: TgCDPK1 (Toxoplasma gondii, UniProt Q9BJF5); test: biochemical
[11] = physchem; conditions: water, pH 6.5, aqueous buffer

Sequence of TgCDPK1 (Q9BJF5 1-507): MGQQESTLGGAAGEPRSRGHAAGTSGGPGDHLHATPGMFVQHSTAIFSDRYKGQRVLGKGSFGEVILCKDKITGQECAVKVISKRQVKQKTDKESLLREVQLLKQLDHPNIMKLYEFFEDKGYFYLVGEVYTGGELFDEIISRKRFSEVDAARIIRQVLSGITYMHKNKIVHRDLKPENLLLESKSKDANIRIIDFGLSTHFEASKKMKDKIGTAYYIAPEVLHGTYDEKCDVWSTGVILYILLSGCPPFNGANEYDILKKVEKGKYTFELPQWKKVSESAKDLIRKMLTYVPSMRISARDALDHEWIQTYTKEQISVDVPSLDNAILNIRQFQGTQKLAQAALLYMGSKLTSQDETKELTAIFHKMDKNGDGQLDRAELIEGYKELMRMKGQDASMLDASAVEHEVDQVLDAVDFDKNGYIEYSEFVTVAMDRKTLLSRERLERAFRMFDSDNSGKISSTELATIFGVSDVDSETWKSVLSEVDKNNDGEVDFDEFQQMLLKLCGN
Sequence of BbCDPK1 (A0A290U7L2 1-497): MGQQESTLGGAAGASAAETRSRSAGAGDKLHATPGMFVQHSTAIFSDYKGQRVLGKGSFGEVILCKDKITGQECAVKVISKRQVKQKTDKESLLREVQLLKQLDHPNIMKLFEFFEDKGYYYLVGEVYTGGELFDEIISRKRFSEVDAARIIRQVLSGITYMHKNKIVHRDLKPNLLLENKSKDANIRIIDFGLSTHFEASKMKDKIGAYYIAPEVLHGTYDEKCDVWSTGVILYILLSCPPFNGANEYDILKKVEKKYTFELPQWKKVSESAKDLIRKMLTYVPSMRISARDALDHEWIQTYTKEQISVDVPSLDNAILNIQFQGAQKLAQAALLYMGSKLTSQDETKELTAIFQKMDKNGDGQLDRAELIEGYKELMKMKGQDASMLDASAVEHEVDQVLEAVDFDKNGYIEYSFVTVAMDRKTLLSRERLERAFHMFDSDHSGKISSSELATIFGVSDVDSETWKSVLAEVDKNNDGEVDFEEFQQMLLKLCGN

Compound: CCOc1ccc2cc(-c3nn(CC4CCN(C)CC4)c4ncnc(N)c34)ccc2c1 [Compound 150]
EC50 [1]: 68 nM | IC50 [2]: 4 nM | IC50 [3]: 5.9 nM | B. besnoiti EC100 [4]: 2.580 µM | EC50 ([4]; Besnoitia besnoiti, read-out: B. besnoiti EC50): 45 nM | activity against N. caninum in vitro [5]: effective in treating N. caninum in vitro | treatment of N. caninum infected mice [6]: treats infected mice and rids of N. caninum infection in brain and fetuses | Cmax [7]: 750 ± 150 nM

Compound: CC(C)(O)Cn1nc(-c2ccc3nc(OC4CC4)ccc3c2)c2c(N)ncnc21 [Example 25, 1-(4-Amino-3-(2-cyclopropoxyquinolin-6-yl)-1H-pyrazolo[3,4-d]pyrimidin-1-yl)-2-methylpropan-2-ol]
EC50 [1]: 128 nM | IC50 [3]: 7.5 nM

Solubility [8]: 6.2 µM (≈ 2.5 µg/mL) | Cmax ([7]; female): 390 ± 160 nM
Compound: CC(C)(CO)Cn1nc(-c2ccc3cc(OC4CC4)ccc3c2)c2c(N)ncnc21 [Example 26, 3-(4-Amino-3-(6-cyclopropoxynaphthalen-2-yl)-1H-pyrazolo[3,4-d]pyrimidin-1-yl)-2,2-dimethylpropan-1-ol]

Solubility [8]: 17 µM (≈ 7.08 µg/mL) | Cmax ([7]; female): 880 ± 230 nM | Tmax ([7]; female): 30 min
Compound: Nc1ncnc2c1c(-c1ccc3nc(OC4CC4)ccc3c1)nn2CC1CCOCC1 [Example 22, 3-(2-Cyclopropoxyquinolin-6-yl)-1-((tetrahydro-2H-pyran-4-yl)methyl)-1H-pyrazolo[3,4-d]pyrimidin-4-amine]

Compound: CC(C)Cn1nc(-c2ccc3cc(OCC(C)(C)O)ccc3c2)c2c(N)ncnc21 [Example 33, 1-(6-(4-amino-1-isobutyl-1H-pyrazolo[3,4-d]pyrimidin-3-yl)naphthalen-2-yloxy)-2-methylpropan-2-ol]
bioavailability (in words) [9]: essentially complete bioavailability | IC50 [10]: 5.7 nM

Compound: CCOc1ccc2cc(-c3nn(CC4(C#N)CCNCC4)c4ncnc(N)c34)ccc2c1 [Example 74, 4-((4-amino-3-(6-ethoxynaphthalen-2-yl)-1H-pyrazolo[3,4-d]pyrimidin-1-yl)methyl)piperidine-4-carbonitrile]
IC50 [10]: 2.7 nM

Compound: CC(C)(O)C(C)(C)Cn1nc(-c2ccc3nc(OC4CC4)ccc3c2)c2c(N)ncnc21 [Example 56, 4-(4-amino-3-(2-cyclopropoxyquinolin-6-yl)-1H-pyrazolo[3,4-d]pyrimidin-1-yl)-2,3,3-trimethylbutan-2-ol]
IC50 [10]: 70.8 nM

Compound: COC(C)(C)Cn1nc(-c2ccc3nc(OC4CC4)ccc3c2)c2c(N)ncnc21 [Example 67, 3-(2-cyclopropoxyquinolin-6-yl)-1-(2-methoxy-2-methylpropyl)-1H-pyrazolo[3,4-d]pyrimidin-4-amine]
IC50 [10]: 430 nM

Compound: CN1CCC(C#N)(Cn2nc(-c3ccc4nc(OC5CC5)ccc4c3)c3c(N)ncnc32)CC1 [Example 92, 4-((4-amino-3-(2-cyclopropoxyquinolin-6-yl)-1H-pyrazolo[3,4-d]pyrimidin-1-yl)methyl)-1-methylpiperidine-4-carbonitrile]
IC50 [10]: 5.5 nM

Compound: CCOc1ccc2cc(-c3nn(CC4(O)CN(C)C4)c4ncnc(N)c34)ccc2c1 [Example 97, 3-((4-amino-3-(6-ethoxynaphthalen-2-yl)-1H-pyrazolo[3,4-d]pyrimidin-1-yl)methyl)-1-methylazetidin-3-ol]
IC50 [10]: 2.6 nM

Compound: Nc1ncnc2c1c(-c1ccc3cc(OC4CC4)ccc3c1)nn2CC1(O)CCOCC1 [Example 63, 4-((4-amino-3-(6-cyclopropoxynaphthalen-2-yl)-1H-pyrazolo[3,4-d]pyrimidin-1-yl)methyl)-tetrahydro-2H-pyran-4-ol]
IC50 [10]: 12.8 nM

Compound: CC(C)Cn1nc(-c2ccc3cc(OC4CC4)ccc3c2)c2c(N)ncnc21 [Example 9, 3-(6-cyclopropoxynaphthalen-2-yl)-1-isobutyl-1H-pyrazolo[3,4-d]pyrimidin-4-amine]
IC50 [10]: 6 nM

Compound: Nc1ncnc2c1c(-c1ccc3nccnc3c1)nn2CC1CCNCC1
EC50 [1]: > 10000 nM | IC50 [3]: > 2000 nM

Compound: COC(=O)COc1ccc2cc(-c3nn(CC4CCN(C)CC4)c4ncnc(N)c34)ccc2c1 [Example 72, methyl 2-((6-(4-amino-1-((1-methylpiperidin-4-yl)methyl)-1H-pyrazolo[3,4-d]pyrimidin-3-yl)naphthalen-2-yl)oxy)acetate]
IC50 [10]: 49.6 nM

Compound: CC(C)Cn1nc(-c2ccc3cc(OC4COC4)ccc3c2)c2c(N)ncnc21 [Example 35, 1-isobutyl-3-(6-(oxetan-3-yloxy)naphthalen-2-yl)-1H-pyrazolo[3,4-d]pyrimidin-4-amine]
IC50 [10]: 4 nM

Compound: CCOc1ccc2cc(-c3nn(CC4(C#N)CCN(C)CC4)c4ncnc(N)c34)ccc2c1 [Example 75, 4-((4-amino-3-(6-ethoxynaphthalen-2-yl)-1H-pyrazolo[3,4-d]pyrimidin-1-yl)methyl)-1-methylpiperidine-4-carbonitrile]
IC50 [10]: 18.3 nM

Compound: Nc1ncnc2c1c(-c1ccc3nc(OC4CC4)ccc3c1)nn2CC1(O)CNC1 [Example 101, 3-((4-amino-3-(2-cyclopropoxyquinolin-6-yl)-1H-pyrazolo[3,4-d]pyrimidin-1-yl)methyl)azetidin-3-ol]
IC50 [10]: 3 nM

Compound: COc1ccc2cc(-c3nn(CC4CCOCC4)c4ncnc(N)c34)ccc2n1 [Example 27, 3-(2-methoxyquinolin-6-yl)-1-((tetrahydro-2H-pyran-4-yl)methyl)-1H-pyrazolo[3,4-d]pyrimidin-4-amine]
IC50 [10]: 21.2 nM | Solubility [11]: 8 µM (≈ 3.12 µg/mL) | Cmax ([7]; female): 3900 ± 1100 nM | Tmax ([7]; female): 30 min | half-life ([7]; female): 41 ± 21 min

Compound: N#CC1(Cn2nc(-c3ccc4cc(OC(F)F)ccc4c3)c3c(N)ncnc32)CCNCC1 [Example 100, 4-((4-amino-3-(6-(difluoromethoxy)naphthalen-2-yl)-1H-pyrazolo[3,4-d]pyrimidin-1-yl)methyl)piperidine-4-carbonitrile]
IC50 [10]: 2.5 nM

Compound: CN1CCC(O)(Cn2nc(-c3ccc4nc(OC5CC5)ccc4c3)c3c(N)ncnc32)CC1 [Example 85, 4-((4-amino-3-(2-cyclopropoxyquinolin-6-yl)-1H-pyrazolo[3,4-d]pyrimidin-1-yl)methyl)-1-methylpiperidin-4-ol]
IC50 [10]: 21 nM

Compound: CN1CC(Cn2nc(-c3ccc4nc(OC5CC5)ccc4c3)c3c(N)ncnc32)C1 [Example 41, 3-(2-cyclopropoxyquinolin-6-yl)-1-((1-methylazetidin-3-yl)methyl)-1H-pyrazolo[3,4-d]pyrimidin-4-amine]
IC50 [10]: 2.8 nM

Compound: CC(C)n1nc(-c2ccc3cc(OC4COC4)ccc3c2)c2c(N)ncnc21 [Example 116, 1-isopropyl-3-(6-(oxetan-3-yloxy)naphthalen-2-yl)-1H-pyrazolo[3,4-d]pyrimidin-4-amine]
IC50 [10]: 6.1 nM

Compound: Nc1ncnc2c1c(-c1ccc3nc(OCC(F)(F)F)ccc3c1)nn2CC1CCNCC1 [Example 44, 1-(piperidin-4-ylmethyl)-3-(2-(2,2,2-trifluoroethoxy)quinolin-6-yl)-1H-pyrazolo[3,4-d]pyrimidin-4-amine]
IC50 [10]: 1.4 nM

Reference: patent publication US10307425B2, “Compositions and methods for treating toxoplasmosis, cryptosporidiosis and other apicomplexan protozoan related diseases” (UNIVERSITY OF WASHINGTON, priority 2015, dated 2019)
